Measurements reported in paper doi:10.1101/2024.08.19.608619, “Discovery of potent SARS-CoV-2 nsp3 macrodomain inhibitors uncovers lack of translation to cellular antiviral response” (bioRxiv, 2024).
≈ marks a conversion by molar mass, not a printed value. Where “and” joins values, the source holds several entries; their conditions need not be identical. Identical values can stand only once. Like-named read-outs stand apart in the source and are kept apart here.

Tests used:
[1] = In vitro kinetic solubility; conditions: for solubility_mean: In vitro kinetic solubility, ph 7.4
PRAK(h) = molecular target: T1, PRAK(h) (Homo sapiens, UniProt Q8IW41); experiment: biochemical; set-up: In vitro kinase panel profiling, per cent remaining kinase activity at 10 uM; conditions: atp_concentration=15, read-out: % of control remaining
T1 construct: gene MAPKAPK5
T1 sequence (Q8IW41 1-473): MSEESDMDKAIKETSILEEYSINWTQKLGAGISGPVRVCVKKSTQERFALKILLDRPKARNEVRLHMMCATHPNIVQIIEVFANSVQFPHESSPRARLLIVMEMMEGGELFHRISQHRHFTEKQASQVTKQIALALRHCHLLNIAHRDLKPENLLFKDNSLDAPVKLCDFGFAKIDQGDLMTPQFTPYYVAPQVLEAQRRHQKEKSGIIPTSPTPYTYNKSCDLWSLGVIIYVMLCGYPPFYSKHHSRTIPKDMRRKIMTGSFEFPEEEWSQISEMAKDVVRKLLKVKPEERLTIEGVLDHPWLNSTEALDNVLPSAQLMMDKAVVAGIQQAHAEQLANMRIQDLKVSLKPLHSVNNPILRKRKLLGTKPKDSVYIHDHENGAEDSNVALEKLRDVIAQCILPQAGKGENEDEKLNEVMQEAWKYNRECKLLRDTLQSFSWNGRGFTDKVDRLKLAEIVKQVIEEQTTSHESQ
Description: (§1) We derisk potential for off-target activity by profiling the compound in a CEREP panel, a standard secondary pharmacology assessment, as well as a kinase panel to derisk a potential hinge-binding motif in our leads, and a PARP panel to derisk activity against human […]. Reassuringly, the compounds are selective, with the only off-targets being moderate human CHRM2 and KOR receptors activity associated with ASAP-0011198.

LOK(h) = molecular target: T2, LOK(h) (Homo sapiens, UniProt O94804); experiment: biochemical; set-up: In vitro kinase panel profiling, per cent remaining kinase activity at 10 uM; conditions: atp_concentration=120, read-out: % of control remaining
T2 construct: gene STK10
Description: as §1

Lyn(h) = Lyn(h) (Homo sapiens, UniProt P07948); experiment: biochemical; set-up: In vitro kinase panel profiling, per cent remaining kinase activity at 10 uM; conditions: atp_concentration=70, read-out: % of control remaining
Description: as §1

TAK1(h) = molecular target: T3, TAK1(h) (Homo sapiens, UniProt O43318); experiment: biochemical; set-up: In vitro kinase panel profiling, per cent remaining kinase activity at 10 uM; conditions: atp_concentration=45, read-out: % of control remaining
T3 construct: gene MAP3K7
T3 sequence (O43318 1-606): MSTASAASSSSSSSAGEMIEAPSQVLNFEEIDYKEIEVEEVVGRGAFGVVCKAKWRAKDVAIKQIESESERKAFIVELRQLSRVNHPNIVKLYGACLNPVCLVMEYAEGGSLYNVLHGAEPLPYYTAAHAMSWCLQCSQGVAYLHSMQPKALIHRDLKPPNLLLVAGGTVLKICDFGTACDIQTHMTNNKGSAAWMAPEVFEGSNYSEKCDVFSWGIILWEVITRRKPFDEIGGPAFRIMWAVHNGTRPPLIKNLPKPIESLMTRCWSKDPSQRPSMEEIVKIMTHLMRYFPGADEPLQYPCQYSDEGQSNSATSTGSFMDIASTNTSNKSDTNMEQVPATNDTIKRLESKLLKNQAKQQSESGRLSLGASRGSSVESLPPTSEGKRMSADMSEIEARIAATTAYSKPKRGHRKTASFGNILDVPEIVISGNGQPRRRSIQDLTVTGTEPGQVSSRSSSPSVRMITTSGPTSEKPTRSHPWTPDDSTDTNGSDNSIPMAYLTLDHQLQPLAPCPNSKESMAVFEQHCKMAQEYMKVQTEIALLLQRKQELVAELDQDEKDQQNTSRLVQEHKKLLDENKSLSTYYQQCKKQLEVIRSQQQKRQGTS
Description: as §1

CHK1(h) = molecular target: T4, CHK1(h) (Homo sapiens, UniProt O14757); experiment: biochemical; set-up: In vitro kinase panel profiling, per cent remaining kinase activity at 10 uM; conditions: atp_concentration=90, read-out: % of control remaining
T4 construct: gene CHEK1
T4 sequence (O14757 1-476): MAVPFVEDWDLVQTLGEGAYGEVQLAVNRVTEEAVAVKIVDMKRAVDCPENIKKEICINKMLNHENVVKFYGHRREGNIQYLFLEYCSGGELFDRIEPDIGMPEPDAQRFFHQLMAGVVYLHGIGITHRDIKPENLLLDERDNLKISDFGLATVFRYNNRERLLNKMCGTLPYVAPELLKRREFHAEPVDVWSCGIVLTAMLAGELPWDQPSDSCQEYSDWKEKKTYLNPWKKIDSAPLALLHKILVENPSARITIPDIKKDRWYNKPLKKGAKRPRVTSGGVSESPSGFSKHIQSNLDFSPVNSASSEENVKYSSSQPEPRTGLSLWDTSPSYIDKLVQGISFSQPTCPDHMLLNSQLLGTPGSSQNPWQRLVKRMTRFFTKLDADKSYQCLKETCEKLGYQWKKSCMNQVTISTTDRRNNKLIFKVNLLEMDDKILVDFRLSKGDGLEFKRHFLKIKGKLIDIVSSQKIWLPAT
Description: as §1

ROCK-I(h) = molecular target: T5, ROCK-I(h) (Homo sapiens, UniProt Q13464); experiment: biochemical; set-up: In vitro kinase panel profiling, per cent remaining kinase activity at 10 uM; conditions: atp_concentration=70, read-out: % of control remaining
T5 construct: gene ROCK1
Description: as §1

PKA(h) = molecular target: T6, PKA(h) (Homo sapiens, UniProt P17612); experiment: biochemical; set-up: In vitro kinase panel profiling, per cent remaining kinase activity at 10 uM; conditions: atp_concentration=10, read-out: % of control remaining
T6 construct: gene PRKACA
Description: as §1

[2] = Permeability Papp (AB) MDR1/MDCKII; conditions: for perc_recovery_a_to_b_mean / perc_recovery_a_to_b_inhibitor_mean: recovery A to B; for perc_recovery_b_to_a_mean / perc_recovery_b_to_a_inhibitor_mean: recovery B to A; for perc_recovery_a_to_b_inhibitor_mean / perc_recovery_b_to_a_inhibitor_mean: MDR1-MDCKII; for papp_b_to_a_mean: B to A
[3] = In vitro MDR1-MDCKII permeability, no inhibitor

Lyn(h), sequence (P07948 whole entry): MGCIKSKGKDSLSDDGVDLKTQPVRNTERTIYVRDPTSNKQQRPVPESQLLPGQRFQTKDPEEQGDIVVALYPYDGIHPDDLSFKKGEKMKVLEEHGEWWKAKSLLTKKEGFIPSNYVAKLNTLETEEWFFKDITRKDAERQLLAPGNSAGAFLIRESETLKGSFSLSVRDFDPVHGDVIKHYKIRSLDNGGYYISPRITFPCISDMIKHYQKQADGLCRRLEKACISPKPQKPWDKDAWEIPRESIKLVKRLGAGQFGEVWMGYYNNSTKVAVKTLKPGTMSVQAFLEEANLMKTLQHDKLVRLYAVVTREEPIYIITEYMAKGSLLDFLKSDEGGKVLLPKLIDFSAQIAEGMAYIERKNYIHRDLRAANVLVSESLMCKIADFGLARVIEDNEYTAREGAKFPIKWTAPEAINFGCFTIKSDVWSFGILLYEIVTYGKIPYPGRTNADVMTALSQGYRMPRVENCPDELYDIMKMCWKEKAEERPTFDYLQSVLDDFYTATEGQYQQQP
T5 sequence (Q13464 whole entry): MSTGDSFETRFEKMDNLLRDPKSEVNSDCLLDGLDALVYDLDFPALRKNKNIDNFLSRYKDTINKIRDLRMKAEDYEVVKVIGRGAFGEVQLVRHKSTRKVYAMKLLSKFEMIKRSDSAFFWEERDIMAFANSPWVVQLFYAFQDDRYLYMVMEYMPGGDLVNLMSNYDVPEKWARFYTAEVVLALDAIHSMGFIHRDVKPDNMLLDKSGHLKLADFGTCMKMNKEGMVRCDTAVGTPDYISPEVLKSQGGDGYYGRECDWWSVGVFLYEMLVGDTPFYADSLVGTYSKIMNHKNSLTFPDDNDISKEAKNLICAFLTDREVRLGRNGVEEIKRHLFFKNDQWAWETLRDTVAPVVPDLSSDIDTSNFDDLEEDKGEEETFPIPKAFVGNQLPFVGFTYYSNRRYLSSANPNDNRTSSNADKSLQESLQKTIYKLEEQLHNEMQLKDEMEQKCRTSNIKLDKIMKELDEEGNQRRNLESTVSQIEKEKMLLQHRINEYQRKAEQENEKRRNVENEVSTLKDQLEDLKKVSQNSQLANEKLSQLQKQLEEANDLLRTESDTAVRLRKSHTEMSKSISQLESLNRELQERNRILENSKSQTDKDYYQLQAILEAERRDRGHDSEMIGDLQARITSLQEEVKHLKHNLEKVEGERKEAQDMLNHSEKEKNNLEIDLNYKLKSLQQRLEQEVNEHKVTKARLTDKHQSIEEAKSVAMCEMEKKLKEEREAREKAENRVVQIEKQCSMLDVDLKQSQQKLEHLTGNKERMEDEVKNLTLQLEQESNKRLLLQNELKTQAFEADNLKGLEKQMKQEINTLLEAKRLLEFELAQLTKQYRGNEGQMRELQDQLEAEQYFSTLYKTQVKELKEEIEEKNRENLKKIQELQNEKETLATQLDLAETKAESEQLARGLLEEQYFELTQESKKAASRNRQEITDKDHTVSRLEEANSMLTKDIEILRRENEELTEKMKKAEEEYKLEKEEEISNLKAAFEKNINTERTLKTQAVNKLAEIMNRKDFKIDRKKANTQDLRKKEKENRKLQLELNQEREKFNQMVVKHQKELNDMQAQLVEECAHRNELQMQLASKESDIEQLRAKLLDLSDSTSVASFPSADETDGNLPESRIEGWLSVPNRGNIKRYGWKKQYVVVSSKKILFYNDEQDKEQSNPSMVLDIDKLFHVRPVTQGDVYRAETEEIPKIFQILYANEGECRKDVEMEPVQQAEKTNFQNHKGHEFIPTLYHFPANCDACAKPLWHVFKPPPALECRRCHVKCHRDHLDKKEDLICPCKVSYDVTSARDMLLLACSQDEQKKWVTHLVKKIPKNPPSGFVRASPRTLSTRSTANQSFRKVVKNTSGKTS
T2 sequence (O94804 whole entry): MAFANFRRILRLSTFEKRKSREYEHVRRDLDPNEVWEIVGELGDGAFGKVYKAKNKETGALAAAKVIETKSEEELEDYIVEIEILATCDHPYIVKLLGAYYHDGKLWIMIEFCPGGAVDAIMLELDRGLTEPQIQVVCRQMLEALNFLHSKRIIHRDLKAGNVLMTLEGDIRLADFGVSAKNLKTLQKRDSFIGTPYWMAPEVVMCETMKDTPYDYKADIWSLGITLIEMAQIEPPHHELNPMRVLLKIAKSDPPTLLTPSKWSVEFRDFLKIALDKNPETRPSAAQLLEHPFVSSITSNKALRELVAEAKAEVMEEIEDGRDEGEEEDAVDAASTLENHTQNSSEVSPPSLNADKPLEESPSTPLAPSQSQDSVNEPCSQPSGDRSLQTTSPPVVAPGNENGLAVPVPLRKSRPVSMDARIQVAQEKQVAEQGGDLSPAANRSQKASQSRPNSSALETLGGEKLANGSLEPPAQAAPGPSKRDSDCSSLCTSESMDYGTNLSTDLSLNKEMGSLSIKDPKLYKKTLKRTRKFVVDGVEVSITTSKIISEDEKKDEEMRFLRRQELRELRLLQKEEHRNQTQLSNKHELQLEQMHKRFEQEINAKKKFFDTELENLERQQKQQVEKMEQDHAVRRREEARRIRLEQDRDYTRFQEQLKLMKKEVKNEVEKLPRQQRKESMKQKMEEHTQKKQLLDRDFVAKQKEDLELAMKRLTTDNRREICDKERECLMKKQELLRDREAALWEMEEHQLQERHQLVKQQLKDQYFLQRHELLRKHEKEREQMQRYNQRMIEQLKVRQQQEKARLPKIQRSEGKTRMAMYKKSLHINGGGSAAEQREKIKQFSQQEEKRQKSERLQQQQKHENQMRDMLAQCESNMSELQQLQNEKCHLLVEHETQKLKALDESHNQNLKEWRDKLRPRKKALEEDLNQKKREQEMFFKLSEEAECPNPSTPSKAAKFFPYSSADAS

`Cc1nn(C)cc1-c1cc2c(NC(c3ccc4c(c3)S(=O)(=O)CCC4)C(C)C)ncnc2[nH]1` (stereo not drawn) [ASAP-0011446] gave a logd (LogD) of 3.1, a logd (LogD; pH 7.4) of 3.1 and a solubility kinetic [1] of 65 µM (≈ 30.2 µg/mL). The solubility ([1]; pH 7.4) was 65 µM (≈ 30.2 µg/mL), the remaining activity at 10 µM (PRAK(h); batch_name=ASAP-0011446-002) was 82% and the remaining activity at 10 µM (LOK(h); batch_name=ASAP-0011446-002) was 93%. It also gave a remaining activity at 10 µM (Lyn(h); batch_name=ASAP-0011446-002) of 48%, a remaining activity at 10 µM (TAK1(h); batch_name=ASAP-0011446-002) of 100% and a remaining activity at 10 µM (CHK1(h); batch_name=ASAP-0011446-002) of 102%. For the same compound, the remaining activity at 10 µM (ROCK-I(h); batch_name=ASAP-0011446-002) was 103%, the remaining activity at 10 µM (PKA(h); batch_name=ASAP-0011446-002) was 95% and the papp_a_to_b_mean ([2]; In vitro MDR1-MDCKII permeability, A to B, mean) was 4.36 ×10⁻⁶ cm/s. The perc_recovery_a_to_b_mean ([2]; In vitro MDR1-MDCKII permeability, mean) was 77.0%, the perc_recovery_a_to_b_mean [2, 3] was 69.7% and the perc_recovery_b_to_a_mean [2, 3] was 63.5%. For the same compound, the perc_recovery_a_to_b_inhibitor_mean ([2]; with inhibitor Verapamil) was 87.7%, the perc_recovery_b_to_a_inhibitor_mean ([2]; with inhibitor Verapamil) was 93.0% and the Papp A→B ([2]; dog, MDCK-MDR1, Papp (AB) MDR1/MDCKII, A to B) was 4.4 ×10⁻⁶ cm/s.

Compound `C[C@H](C(=O)O)[C@@H](NC(=O)c1ncnc2[nH]ccc12)c1ccc(Br)cc1` [ASAP-0014722] has a logd (LogD; pH 7.4, In vitro LogD) of 0.6, a solubility_mean [1] of 358 µM (≈ 144 µg/mL) and a remaining activity at 10 µM (PRAK(h); batch_name=ASAP-0014722-002) of 88%. For the same compound, the remaining activity at 10 µM (LOK(h); batch_name=ASAP-0014722-002) was 97%, the remaining activity at 10 µM (Lyn(h); batch_name=ASAP-0014722-002) was 94% and the remaining activity at 10 µM (TAK1(h); batch_name=ASAP-0014722-002) was 95%. It also gave a remaining activity at 10 µM (CHK1(h); batch_name=ASAP-0014722-002) of 99%, a remaining activity at 10 µM (ROCK-I(h); batch_name=ASAP-0014722-002) of 90% and a remaining activity at 10 µM (PKA(h); batch_name=ASAP-0014722-002) of 87%. For the same compound, the papp_b_to_a_mean [2, 3] was 0.274 ×10⁻⁶ cm/s, the efflux_ratio [2, 3] was 8.67 and the perc_recovery_a_to_b_mean [2, 3] was 89.1% and 77.4%. For the same compound, the perc_recovery_b_to_a_mean [2, 3] was 87.2%, the perc_recovery_a_to_b_inhibitor_mean ([2]; with inhibitor Cyclosporin A) was 80.9% and the perc_recovery_b_to_a_inhibitor_mean ([2]; with inhibitor Cyclosporin A) was 84.1%.

Compound `COc1ccc([C@H](Cc2nnn[nH]2)NC(=O)c2ncnc3[nH]ccc23)cc1` [ASAP-0015381] has a logd (LogD; pH 7.4, In vitro LogD) of -0.5, a solubility_mean [1] of 367 µM (≈ 134 µg/mL) and a remaining activity at 10 µM (PRAK(h); batch_name=ASAP-0015381-001) of 109%. The remaining activity at 10 µM (LOK(h); batch_name=ASAP-0015381-001) was 102%, the remaining activity at 10 µM (Lyn(h); batch_name=ASAP-0015381-001) was 108% and the remaining activity at 10 µM (TAK1(h); batch_name=ASAP-0015381-001) was 99%. For the same compound, the remaining activity at 10 µM (CHK1(h); batch_name=ASAP-0015381-001) was 110%, the remaining activity at 10 µM (ROCK-I(h); batch_name=ASAP-0015381-001) was 103% and the remaining activity at 10 µM (PKA(h); batch_name=ASAP-0015381-001) was 88%. For the same compound, the papp_b_to_a_mean [2, 3] was 0.021 ×10⁻⁶ cm/s, the efflux_ratio [2, 3] was 0.67 and the perc_recovery_a_to_b_mean [2, 3] was 87.0% and 68.4%. The perc_recovery_b_to_a_mean [2, 3] was 84.4%, the perc_recovery_a_to_b_inhibitor_mean ([2]; with inhibitor Cyclosporin A) was 83.1% and the perc_recovery_b_to_a_inhibitor_mean ([2]; with inhibitor Cyclosporin A) was 85.5%.
